Measurements from BindingDB's records for doi:10.7270/Q29K48M5 (University of Pittsburgh, 2007).

Target: T1, M-phase inducer phosphatase 2 (Homo sapiens, UniProt P30305)
T1 sequence (P30305 whole entry): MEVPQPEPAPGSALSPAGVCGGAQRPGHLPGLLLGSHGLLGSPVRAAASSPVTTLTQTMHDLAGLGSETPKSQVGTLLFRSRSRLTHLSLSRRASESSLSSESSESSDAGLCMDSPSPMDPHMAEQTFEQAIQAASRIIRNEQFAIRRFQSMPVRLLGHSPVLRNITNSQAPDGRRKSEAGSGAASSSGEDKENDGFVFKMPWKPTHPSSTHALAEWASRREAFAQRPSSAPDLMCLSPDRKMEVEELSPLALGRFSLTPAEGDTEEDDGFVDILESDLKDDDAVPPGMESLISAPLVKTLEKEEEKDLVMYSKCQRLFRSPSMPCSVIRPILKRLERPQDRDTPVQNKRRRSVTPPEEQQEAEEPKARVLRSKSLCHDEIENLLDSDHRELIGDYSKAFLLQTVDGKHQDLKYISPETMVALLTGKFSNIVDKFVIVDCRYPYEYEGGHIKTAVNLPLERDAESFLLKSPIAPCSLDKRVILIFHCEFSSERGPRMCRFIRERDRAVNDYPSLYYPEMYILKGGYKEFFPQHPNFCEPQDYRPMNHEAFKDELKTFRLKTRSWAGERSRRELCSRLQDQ
Assay: Cdc25B catalytic domain phosphatase inhibitors, dose response, biochemical, 25 mM DTT, probe assessment (AID 649)

| SMILES | IC50 [µM] |
| --- | --- |
| O=C(Nc1ccc2nc(-c3ccco3)c(-c3ccco3)nc2c1)N1CCCCCC1 | 39.8 |
| Cc1ccc2c(c1C)NC(C(=O)O)C1CC=CC21 (stereo not drawn) | 17.7 |
| O=C(O)C1Nc2c(O)cccc2C2C=CCC12 (stereo not drawn) | 12.8 |
| Cn1ncnc2c(=O)n(C)c(=O)nc1-2 | 34.5 |
| [O-]/[N+](=C\c1ccncc1)c1ccccc1 | > 50 |
| COc1cccc2c(C)c(C(=O)O)[nH]c12 | 10.9 |
| O=C1C=Cc2ccccc2C1=O [1,2-dihydronaphthalene-1,2-dione] | > 50 |
| CCn1nc(-c2ccccc2)nc2c(=O)n(C)c(=O)nc1-2 [1-Ethyl-6-methyl-3-phenyl-1H-pyrimido[5,4-e][1,2,4]triazine-5,7-dione] | 21.1 |
| [O-]/[N+](=C\c1ccc(OC(F)F)cc1)c1ccccc1 [1-[4-(difluoromethoxy)phenyl]-N-phenylmethanimine oxide] | > 50 |
| CCn1nc(-c2cccs2)nc2c(=O)n(C)c(=O)nc1-2 [1-ethyl-6-methyl-3-thiophen-2-yl-pyrimido[5,4-e][1,2,4]triazine-5,7-dione] | 17.2 |
| O=C1Cc2ccccc2C(=O)N1CCc1ccccc1 [2-(2-phenylethyl)-4H-isoquinoline-1,3-dione] | > 50 |
| N#Cc1c(N)sc(=S)c2c1CCN(Cc1ccccc1)C2 [3-Amino-7-benzyl-1-thioxo-5,6,7,8-tetrahydro-1H-thiopyrano[3,4-c]pyridine-4-carbonitrile] | 49.3 |
| Cc1ccccc1Nc1cc2ccccc2c(O)n1 [3-[(2-methylphenyl)amino]-2H-isoquinolin-1-one] | 42.3 |
| COc1ccc(Br)cc1C=c1sc2nc(-c3ccco3)nn2c1=O [5-[(5-bromanyl-2-methoxy-phenyl)methylidene]-2-(furan-2-yl)-[1,3]thiazolo[3,2-b][1,2,4]triazol-6-one] | 14.7 |
| CC(=O)Nc1cc(OC(C)=O)c2nonc2c1OC(C)=O [Acetic acid 7-acetoxy-5-acetylamino-benzo[1,2,5]oxadiazol-4-yl ester] | > 50 |
| c1ccc(CSc2nnc(-c3ccco3)c(-c3ccco3)n2)cc1 [MLS-0029114.0001] | > 50 |
| Cc1ccc2c(c1)C1C=CCC1C(C(=O)O)N2 (stereo not drawn) [MLS-0067149.0001] | 11.4 |
| O=C(NC1(O)C(=O)c2ccccc2C1=O)c1ccccc1 [N-(2-hydroxy-1,3-dioxo-2-indenyl)benzamide] | > 50 |
| Nc1cccc2cnccc12 [isoquinolin-5-amine] | > 50 |

Other lines, results leading:

| IC50 [µM] | SMILES |
| --- | --- |
| > 50 | CCOC(=O)C(C(=O)OCC)c1cc(Br)c2noc3c2c1C(=O)c1ccccc1-3 [MLS000038842] |
| 48 | Oc1nc(Nc2ccccc2)cc2ccccc12 [MLS000043701] |
| > 50 | O=C1C=Cc2ccccc2/C1=C/NC12CN3CCN(CN(C3)C1)C2 [MLS000071484] |
| > 50 | Cc1c(N=c2c(=O)c3ccccc3c2=O)c(=O)n(-c2ccccc2)n1C [MLS000105950] |
| > 50 | CCOc1ccc2noc3c2c1C(=O)c1ccccc1-3 [MLS000106837] |
| > 50 | COc1ccc2noc3c2c1C(=O)c1ccccc1-3 [MLS000106874] |
| 11.7 | COc1cccc2c1NC(C(=O)O)C1CC=CC21 (stereo not drawn) [SMR000009698] |
| 7.42 | O=C(OC1CCCCC1)c1ccc2c(c1)C1C=CCC1C(C(=O)O)N2 (stereo not drawn) [SMR000019385] |
| > 50 | N#Cc1c(N2CCCC2)nc(N)c2c(N)nc(N3CCCC3)cc12 [SMR000061605] |
